The results in this text go back to patent publication EP1714639A1, “Cosmetic compositions containing piperazine derivatives” (L'ORÉAL, priority 2005, dated 2006).

Experiment [1] has as its system canaux calciques de type L. The experiment can be described thus: binding test on L-type calcium channels ([3H](-) D 888 displacement, verapamil site). The arrangement: species or system rat. As to conditions: for % inhibition de la liaison: 1 µM in DMSO, [3H](-) D 888 0.5 nM, rat cerebral cortex homogenates, 60 min/22°C. The method, then:
On a évalué la capacité des composés des Exemples 1, 4 et 5 (à 1 µM dans le DMSO) à inhiber par compétition la fixation d'[…] de canaux calciques de type L.
Les études sont réalisées à partir d'homogénats de cortex cérébral de rat (membranes isolées présentant à leur surface des canaux calciques de type L) selon la méthode décrite par Reynolds I.J. et al., 1986, J. Pharmacol. Exp. Ther., 237, p.731.
Les conditions expérimentales sont les suivantes :
D888 qui est le [^3H](-) desmethoxyverapamil sert de ligand spécifique radiomarqué et D600 qui est le chlorhydrate de (±)méthoxyvérapamil sert de molécule de référence.
La liaison spécifique d'un ligand (D888 marqué) aux récepteurs (canaux calciques de type L, site vérapamil) est définie comme la différence entre la liaison totale et la liaison non spécifique déterminée en présence d'un excès de ligand froid (non radioactif). Les résultats sont exprimés en pourcentage d'inhibition de la liaison spécifique du témoin en présence du composé testé.

In experiment [2] the test system is cellules musculaires striées humaines. In words: nerve-muscle co-culture test (inhibition of muscle fibre contractions). The following applies: for inhibition at 10 µM / inhibition at 100 µM: 60 s incubation, contractions counted over 30 s, triplicate, read-out: % d'inhibition des contractions. The format is cell-based. The source says:
Les composés des Exemples 1 et 2 ont été testés sur un modèle de co-culture nerfs-muscles qui permet de recréer un arc moteur en innervant des cellules musculaires striées humaines avec des explants de moelle épinière et de ganglions rachidiens d'embryons de rat.
Des cellules musculaires humaines, issues de prélèvements de muscles striés de donneur sain, sont ensemencées dans des puits de 1,8 cm^2 de section (boîtes de culture de 24 puits). Après 10 jours de culture, ces cellules forment une monocouche et fusionnent. A ce stade, des explants de moelle épinière d'embryons de rat de 13 jours contenant les ganglions rachidiens sont déposées sur la culture.
La croissance des neurites est visible en dehors de l'explant de moelle épinière après un jour de culture. Les premières contractions des fibres musculaires sont observées après 5 à 6 jours de co-culture et après 3 semaines, toutes les fibres musculaires au voisinage des explants se contractent.
Le co-cultures sont utilisées après 21 jours, quand les fibres musculaires sont striées et possèdent des jonctions neuromusculaires différenciées matures.
Une fibre musculaire ayant des contractions régulières (au moins 60 contractions par minute) est alors sélectionnée dans trois puits de culture différents et le nombre de contractions est comptabilisé sur 30 secondes. Les composés testés, dilués dans le DMSO, sont ensuite incubés pendant 60 secondes dans ces puits, à la concentration de 10 µM pour le composé de l'Exemple 1 et de 10 et 100 µM pour le composé de l'Exemple 2. A la fin de l'incubation, le nombre de contractions est à nouveau comptabilisé sur 30 secondes. Le test est réalisé en triplicata.

Experiment [3] in a line: anti-wrinkle activity in vivo.

Regarding `C(=Cc1ccccc1)CN1CCN(CCCc2ccccc2)CC1` [compound 1, 1-(3-phenyl-2-propenyl)-4-(3-phenylpropyl)-piperazine], the “% inhibition de la liaison” value in experiment [1] is given as 30%. For the same compound, in experiment [2], the inhibition (commonly the change of the read-out against control, counted positive when it falls) at 10 µM was 65% and the inhibition at 100 µM worked out at 100%.
With `c1ccc(CCCN2CCN(CCc3ccccc3)CC2)cc1` [compound 2, 1-(2-phenylethyl)-4-(3-phenylpropyl)-piperazine], the “inhibition de la liaison spécifique du témoin aux canaux calciques” value in experiment [1] (similar test, concentration 50 µM) is reported as 50%. In experiment [2], the inhibition at 10 µM worked out at 50% and the inhibition at 100 µM is 100%.
`OCCCN1CCN(CCCc2ccccc2)CC1` [compound 4, 1-(3-hydroxpropyl) 4-(3-phenylpropyl)-piperazine]: the “% inhibition de la liaison” value in experiment [1] was determined as 22%.
On the same count and under the same terms, the figure for `CCN1CCN(CCCc2ccccc2)CC1` [compound 5, 1-ethyl 4-(3-phenylpropyl)-piperazine] is 16%.
Turning to `CN1C(=O)CN=C(c2ccccc2)c2cc(Cl)ccc21` [diazépam, reference compound], the activité anti-rides entry in experiment [3] is on record as “démontrée in vivo”. Also, in experiment [2] (earlier finding of the applicant in this model), the “contractions des fibres musculaires” value was “inhibait les contractions des fibres musculaires”.
